Values of other authors in US20090093865A1, “METHOD AND SYSTEM FOR CONTROLLING THE SPREAD OF MICROORGANISMS AMONG SUBJECTS IN A GROUP” (priority 2006, published 2009).

Tested on: methicillin-resistant Staphylococcus aureus
Settings: randomized controlled trial of mupirocin versus placebo (Harbarth et al. 1999)

C/C(=C\C(=O)OCCCCCCCCC(=O)O)C[C@@H]1OC[C@H](C[C@@H]2O[C@H]2[C@@H](C)[C@H](C)O)[C@@H](O)[C@H]1O [mupirocin]
carriers in whom methicillin-resistant S. aureus was successfully eradicated: 44%
